# Results reported in publication PMC10223284, “Category-Based Toxicokinetic Evaluations of Data-Poor Per- and Polyfluoroalkyl Substances (PFAS) using Gas Chromatography Coupled with Mass Spectrometry” (Toxics, 2023).
# Where “and” joins values, the source holds several entries; their conditions need not be identical. Identical values can stand only once. Like-named read-outs stand apart in the source and are kept apart here.
# What was measured:
# [1] = Hepatic metabolic stability (hepatocyte clearance) assay, substrate depletion; format: in vitro ADME, human; details: both sexes, human; for half-life at 1 μM: read-out: Linear Regression Results, Best-Fit Values, Half Life
# From the text: (§1) William’s Medium E (Gibco A1217601), dexamethasone, and cell maintenance cocktail B (Gibco CM4000) were obtained from Thermo Fisher Scientific (Waltham, MA, USA). Hepatosure OptiThaw media (P/N K8000; Lot No. 18–1–0322) was obtained from Sekisui Xenotech (Kansas City, KS, USA). Trypan blue solution (P/N 1450021) was obtained from Bio-Rad (Hercules, CA, USA). Pooled human cryopreserved primary hepatocyte suspensions were obtained from BioIVT (Westbury, NY, USA) and produced using nontransplantable tissue. The human 50-donor pool (mixed gender; Cat X0080005; Lot MYC), selected from BioIVT’s commercially available, prepooled lots, was selected following review of vendor-generated metabolic characterization information. Pooled, mixed-sex human plasma from de-identified donors was obtained from a commercial vendor that operates a U.S. Food and Drug Administration-licensed and inspected donor center (BioIVT bioivt.com (accessed 12 May 2023). Donors comprised five males and five females and ranged from 20 to 50 years of age. Plasma collected using anticoagulant K2EDTA was sterile-filtered ([…]) and stored at <−70 °C until use.
# (§2) The hepatic metabolic stability assay measures the loss of a parent compound over time in a substrate-depletion approach. Briefly, hepatocyte suspensions, after a viability assessment, were diluted in complete William’s medium E (containing dexamethasone and cell maintenance cocktail B) prior to addition to 96-well polypropylene plates containing an equal volume of media spiked with the test compound (1 μM assay concentration; assay cell density = 50,000 cells/100 μL) and maintained at 37 °C with shaking. At each time point, relevant plates were crashed with an equal volume of ice-cold acetonitrile, centrifuged, and supernatant transferred to a new plate prior to storage at <−70 °C until quantitative analysis. Controls, run in parallel, included cell-free (i.e., media only) and metabolically inactivated hepatocytes to evaluate abiotic chemical stability in the aqueous media matrix with and without cellular protein. In preliminary runs, these controls were run at T0 and T240 only. If significant instability was noted, the hepatocyte clearance assay was rerun, including cell-free samples at each time point and metabolically inactivated hepatocytes at selected time points.
# (§3) To process samples for quantitative analysis, samples were thawed and mixed. An aliquot of sample was removed and diluted in acetonitrile (1 part sample plus 9 parts acetonitrile) containing the relevant ISs selected for the PFAS being analyzed (See Table S2). The target at instrument concentration of each IS was 10 pg/μL.
# (§4) The curves were generated using concentration/response ratios from the target analyte and IS, with either linear or quadratic regression models. The model and weighting, if necessary, were chosen to most accurately reflect the response of each compound and was evaluated by recalculating the individual calibration points using the curve. An acceptable model reflected an accuracy of ±30% of the theoretical value.
# (§5) Hepatic metabolic clearance data were plotted in semi-log format (ln concentration vs. time) with three replicates at each time point, as previously described. […] The equations described below are used to calculate the chemical half-life (T½) and intrinsic in vitro clearance (Clin vitro) with units of μL/(min × million hepatocytes). In Equation (3), 2000 is a scalar used to adjust the assay cell number up to be consistent with units of 1 million cells in the Clint equation.
# (§6) Negative controls, including media only and metabolically inactivated hepatocyte controls, were included to monitor abiotic loss (i.e., background clearance) during the assay. Where significant compound loss occurred using the analysis described above, background clearance rates were calculated and used to background-adjust hepatic metabolic clearance rates. […]
# [2] = test system: pooled human cryopreserved primary hepatocyte suspensions; experiment: as above; format: in vitro ADME; details: for Concentration (nM), Time 0 min / Concentration (nM), Time 15 min / Concentration (nM), Time 30 min / Concentration (nM), Time 60 min / Concentration (nM), Time 120 min: hepatocyte incubation, Rep 1-3, start conc 1000 nM; for Linear Regression Results, Best-Fit Values, Slope: hepatocyte time course
# From the text: as §1, §2, §3, §4, §5, §6
# [3] = Abiotic loss in negative controls of the hepatocyte clearance assay (cell-free media, metabolically inactivated hepatocytes); format: in vitro ADME; details: for half-life at 1 μM / HT BkgdCl, Slope / No Cells BkgdCl, Slope: 0 vs 240 min; for Hep_Stab_Fail: flag for stability failure in hepatocyte clearance assay controls (1 or Fst = fail, 0 = pass)
# Outline: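 Test compound at 1 μM incubated at 37 °C with shaking in complete William's medium E, either cell-free or with metabolically inactivated hepatocytes, then quenched with ice-cold acetonitrile for quantitative analysis.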
# [4] = In vitro-in vivo extrapolation (IVIVE) to Css and administered equivalent dose (AED); set-up: species or system human; details: for Clhep: IVIVE, hepatocyte Clint scaled to whole-liver clearance; for AED: administered equivalent dose from LOEC and Css; for Fub: fub=fup/(B:P), Fub set to 1 if needed; for CLint: scaled with HPGL 110 mill cells/g, Vl 1596 g
# Description: Using the experimentally generated PPB (fraction unbound in plasma, fup) and hepatic Clint data, IVIVE was performed as previously described to calculate human steady-state plasma concentrations (Css). Briefly, experimental measures of fup are adjusted using blood:plasma partitioning information to estimate the fraction unbound in blood (fub). Experimental hepatocyte Clint data are scaled up to represent whole-liver clearance (L/h). […] Once estimated, these Css values are considered in conjunction with published in vitro bioactivity concentrations (i.e., lowest-observed effective concentrations, or LOECs) to calculate AEDs (Table 2). See Table S10 for all relevant IVIVE inputs, scalars, calculations, and outputs.
# human primary cells = details: cited from earlier work
# in vitro = details: both, human, plasma
# human plasma [5] = experiment: Chemical stability in plasma over the UC assay time course (T5hr/T1hr); details: for PPB_Stab_Fail: flag for stability failure in the plasma protein binding assay (1 = fail, 0 = pass); for Fstable.Med: median fraction stable in plasma, UC assay Level4
# Description: Three replicates were run per experiment, with 4NT included as a reference compound in each to evaluate assay performance. All PFAS and 4NT, prepared at a 3 mM working stock, were added to human plasma to achieve a final, thoroughly mixed assay concentration of 10 μM, incubated at 37 °C for 1 h with shaking. […] After UC, the aqueous fraction (AF; i.e., supernatant devoid of plasma proteins/lipoproteins/fatty acids) was collected and transferred to a new tube. The second aliquot maintained at 37 °C was collected (T5hr). At the relevant time points, each volume of sample was combined with 3 volumes of vigorously mixed ice-cold acetonitrile with the labeled IS and stored for 10 min at −20 °C prior to centrifugation at 12,000× g for 10 min at 4 °C. The supernatant was collected and stored at <−70 °C until quantitative analysis. […] Furthermore, chemical stability in plasma over the assay time course was assessed using the T1hr and T5hr samples.
# Percent chemical remaining at the end of the UC assay (T5hr/T1hr) was used to remove unstable chemicals from further evaluation.
# human plasma [6] = experiment: Ultracentrifugation (UC) plasma protein binding assay, fraction unbound in plasma (fup); details: for fup: human plasma, 10 μM, ultracentrifugation, 37 °C; for Fup.Med: median fraction unbound in plasma; for Fup.Med / Fup.point: UC assay Level4; for Fup.point: point estimate of fraction unbound in plasma
# [7] = hepatocytes, background-subtracted, read-out: Bkgd-Sub Clearance (µL/min/106 hepatocytes)
# [8] = hepatocytes, hepatocyte clearance, Conc 1000 nM, not background adjusted, read-out: Unadj Clint
# [9] = hepatocytes, pooled human hepatocyte suspensions, 1 μM, read-out: In Vitro Clint
# [10] = hepatocytes, unadjusted hepatocyte intrinsic clearance, read-out: Unadj in vitro Clint
# [11] = hepatocytes, hepatocyte time course, NS = slope not significant, read-out: Linear Regression Results, Best-Fit Values, Clearance
# [12] = hepatocytes, hepatocyte time course, NS = slope not significant
# [13] = s9, Bayesian analysis median, 1 μM assay concentration (Table S9), read-out: Clint.1.Med
# [14] = buffer, no cells control, read-out: No Cells BkgdCl, Half Life
# [15] = heat treated hepatocytes control
# [16] = Assuming 1 mg/kg/day dose rate, BW 70 kg
# [17] = human steady-state plasma concentration, assuming 1 mg/kg/day dosage
# [18] = BioSeek lowest-observed effect concentration used for AED
# [19] = minimum lowest-observed effect concentration, BioSeek platform
# [20] = Mean fu, fraction unbound in human plasma, ultracentrifugation, some values based on eLOQ
# [21] = heat treated hepatocytes, Rep 1-3
smiles,measurement,setting,value
NC(=O)C(F)(F)C(F)(F)C(F)(F)C(F)(F)F [Nonafluoropentanamide],hepatocyte CLint at 1 μM,[1]; [7],26 µL/min/1e6 cells
same,hepatocyte CLint at 1 μM,[1]; [8],34.9 µL/min/1e6 cells
same,hepatocyte CLint at 1 μM,[1]; [9],26 µL/min/1e6 cells
same,hepatocyte CLint at 1 μM,[1]; [10],34.9 µL/min/1e6 cells
same,hepatocyte CLint at 1 μM,[1]; [11],34.9 µL/min/1e6 cells
same,half-life at 1 μM,[1]; [12],0.661 h
same,hepatocyte CLint at 1 μM,[1]; [13],88.7 µL/min/1e6 cells
same,"Concentration (nM), Time 0 min",[2],390.162 nM and 651.917 nM and 499.488 nM
same,"Concentration (nM), Time 15 min",[2],214.882 nM and 126.475 nM and 193.144 nM
same,"Concentration (nM), Time 30 min",[2],192.232 nM and 153.873 nM and 192.317 nM
same,"Concentration (nM), Time 60 min",[2],74.6949 nM and 76.5031 nM and 55.8443 nM
same,"Concentration (nM), Time 120 min",[2],22.6965 nM and 21.4336 nM and 13.3509 nM
same,"Linear Regression Results, Best-Fit Values, Slope",[2],-0.01747
same,half-life at 1 μM,"[3]; both sexes, human, heat treated hepatocytes control, read-out: HT BkgdCl, Half Life",1.58 h
same,half-life at 1 μM,[3]; [14],2.59 h
same,Hep_Stab_Fail,[3],0
same,"HT BkgdCl, Slope",[3]; [15],-0.007311
same,"No Cells BkgdCl, Slope",[3]; no cells control,-0.004457
same,"Negative Controls, No cells (NC), concentration at 0 min",[3]; Rep 1-3,364.995 nM and 386.302 nM and 296.545 nM
same,"Negative Controls, No cells (NC), concentration at 240 min",[3]; Rep 1-3,132.756 nM and 122.614 nM and 103.779 nM
same,Css,[4]; [16],0.06 mg/L and 0.23 uM
same,Clhep,[4],47.130 L/h
same,AED,[4],31.0338 mg/kg/day
same,Fub,[4],0.3609
same,Css,[4]; [17],0.23 µM
same,CLint,[4],4569125 µL/min
same,LOEC,human primary cells; [18],7.00 µM
same,LOEC,human primary cells; [19],7 µM
same,fraction unbound,"in vitro; Fraction Unbound (fu), Run-specific Avg, run-specific average",0.2
same,fraction unbound,"in vitro; Fraction Unbound (fu), replicate A, individual replicate A of the UC run dated in c8",0.228
same,fraction unbound,"in vitro; Fraction Unbound (fu), replicate B, individual replicate B of the UC run dated in c8",0.178
same,fraction unbound,"in vitro; Fraction Unbound (fu), replicate C, individual replicate C of the UC run dated in c8",0.191
same,fraction unbound,in vitro; [20],0.199
same,PPB_Stab_Fail,human plasma [5],0
same,Mean Stability (T5hr/T1hr),"human plasma [5]; mean over all UC runs and replicates, human plasma",0.975
same,Fstable.Med,human plasma [5],0.999
same,"Stability (T5hr/ T1hr), Run-specific Avg",human plasma [5]; run-specific average,0.945
same,fup,human plasma [6],0.1985
same,Fup.Med,human plasma [6],0.192
same,Fup.point,human plasma [6],0.199
"OCC(F)(F)C(F)(F)C(F)(F)C(F)(F)C(F)(F)C(F)(F)CO [1H,1H,8H,8H-Perfluorooctane-1,8-diol]",hepatocyte CLint at 1 μM,[1]; [7],20 µL/min/1e6 cells
same,hepatocyte CLint at 1 μM,[1]; [8],22.8 µL/min/1e6 cells
same,hepatocyte CLint at 1 μM,[1]; [9],20 µL/min/1e6 cells
same,hepatocyte CLint at 1 μM,[1]; [10],22.8 µL/min/1e6 cells
same,hepatocyte CLint at 1 μM,[1]; [11],22.8 µL/min/1e6 cells
same,half-life at 1 μM,[1]; [12],1.01 h
same,hepatocyte CLint at 1 μM,[1]; [13],5.03 µL/min/1e6 cells
same,"Concentration (nM), Time 0 min",[2],833.88 nM and 886.538 nM and 918.72 nM
same,"Concentration (nM), Time 15 min",[2],552.068 nM and 564.688 nM and 626.636 nM
same,"Concentration (nM), Time 30 min",[2],572.698 nM and 772.55 nM and 675.577 nM
same,"Concentration (nM), Time 60 min",[2],915.509 nM and 882.56 nM and 951.955 nM
same,"Concentration (nM), Time 120 min",[2],252.926 nM and 197.823 nM and 212.459 nM
same,"Linear Regression Results, Best-Fit Values, Slope",[2],-0.01141
same,half-life at 1 μM,[3]; [14],8.21 h
same,Hep_Stab_Fail,[3],0
same,"HT BkgdCl, Slope",[3]; [15],-0.00103
same,"Negative Controls, Heat Treated (HT), concentration at 0 min",[3]; [21],1090.28 nM and 973.38 nM and 645.077 nM
same,"Negative Controls, Heat Treated (HT), concentration at 240 min",[3]; [21],595.287 nM and 737.448 nM and 742.842 nM
same,"No Cells BkgdCl, Slope",[3]; no cells control,-0.001407
same,"Negative Controls, No cells (NC), concentration at 0 min",[3]; Rep 1-3,937.465 nM and 878.747 nM and 1163.86 nM
same,"Negative Controls, No cells (NC), concentration at 240 min",[3]; Rep 1-3,676.807 nM and 658.518 nM and 781.013 nM
same,Css,[4]; [16],0.16 mg/L and 0.45 uM
same,Clhep,[4],17.326 L/h
same,AED,[4],15.5263 mg/kg/day
same,Fub,[4],0.1018
same,Css,[4]; [17],0.45 µM
same,CLint,[4],3512253 µL/min
same,LOEC,human primary cells; [18],7.00 µM
same,LOEC,human primary cells; [19],7 µM
same,fraction unbound,"in vitro; Fraction Unbound (fu), Run-specific Avg, average of one UC run (run date in line above)",0.0529
same,fraction unbound,"in vitro; Fraction Unbound (fu), individual replicates A, B, C of the UC run named in c8",0.0626
same,fraction unbound,in vitro; [20],0.056
same,Time 1 hr,"human plasma [5]; amount measured in plasma sample at 1 hr, replicates A, B, C, unit not given",8242.79 and 6998.48 and 7495.85 and 8652.78 and 7694.03 and 8210.48
same,Time 5 hr,"human plasma [5]; amount measured in plasma sample at 5 hr, replicates A, B, C, unit not given",7470.56 and 8168.83 and 8821.07 and 7477.64 (2×) and 9359.65
same,"Stability (T5hr/ T1hr), Run-specific Avg",human plasma [5]; average of one UC run (run date in line above),0.913
same,PPB_Stab_Fail,human plasma [5],0
same,Mean Stability,"human plasma [5]; mean T5hr/T1hr ratio over all replicates and runs, plasma",0.997
same,Fstable.Med,human plasma [5],0.989
same,Aqueous Fraction,"human plasma [6]; amount measured in aqueous fraction after ultracentrifugation, replicates A, B, C, unit not given",467.47 and 486.886 and 467.528 and 459.225 and 404.056 and 403.816
same,fup,human plasma [6],0.0560
same,Fup.Med,human plasma [6],0.0465
same,Fup.point,human plasma [6],0.0506
